Assay results from ChEMBL document CHEMBL1201862, “PubChem BioAssay data set” (2004).
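Compound exposure: 48 hours, 5 concentrations, 96-well plates. At the GI50, growth is halved.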 Active and inactive are the calls of the source. Rule as the data show it: active = GI50 up to about 1.1 µM and inactive = higher.

Key:
Test in all cases: inhibition of tumour cell growth, NCI panel, 48 h
786-0 = system: 786-0
CAKI-1 = system: CAKI-1
DU-145 = system: DU-145
HCC 2998 = system: HCC 2998
HOP-62 = system: HOP-62
HOP-92 = system: HOP-92
KM12 = system: KM12
M14 = system: M14
MCF7 = system: MCF7
MOLT-4 = system: MOLT-4
OVCAR-3 = system: OVCAR-3
OVCAR-4 = system: OVCAR-4
SF-295 = system: SF-295
SK-MEL-28 = system: SK-MEL-28
SK-OV-3 = system: SK-OV-3
SNB-75 = system: SNB-75
SW-620 = system: SW-620
TK-10 = system: TK-10
U-251 = system: U-251
UACC-257 = system: UACC-257

COc1ccc(OC)c2c(=S)c3ccccc3[nH]c12
GI50 (786-0): > 91.8 µM (inactive) | GI50 (CAKI-1): > 100 µM (inactive) | GI50 (DU-145): > 100 µM (inactive) | GI50 (HCC 2998): > 100 µM (inactive) | GI50 (HOP-62): > 100 µM (inactive) | GI50 (HOP-92): > 100 µM (inactive) | GI50 (KM12): > 100 µM (inactive) | GI50 (M14): > 100 µM (inactive) | GI50 (MCF7): 36.7 µM (inactive) | GI50 (MOLT-4): 39.4 µM (inactive) | GI50 (OVCAR-3): > 100 µM (inactive) | GI50 (OVCAR-4): > 100 µM (inactive) | GI50 (SF-295): 92.3 µM (inactive) | GI50 (SK-MEL-28): > 100 µM (inactive) | GI50 (SK-OV-3): > 100 µM (inactive) | GI50 (SNB-75): > 79.6 µM (inactive) | GI50 (SW-620): > 75.3 µM (inactive) | GI50 (TK-10): > 67.8 µM (inactive) | GI50 (U-251): > 87.3 µM (inactive) | GI50 (UACC-257): > 73.8 µM (inactive)

CCCCCCCCCCCCn1c(=O)cc(NCCCC)c2cc3c(NCCCC)cc(=O)n(CCCCCCCCCCCC)c3nc21
GI50 (786-0): > 100 µM (inactive) | GI50 (CAKI-1): > 100 µM (inactive) | GI50 (DU-145): > 100 µM (inactive) | GI50 (HCC 2998): > 100 µM (inactive) | GI50 (HOP-62): 53.8 µM (inactive) | GI50 (HOP-92): > 100 µM (inactive) | GI50 (KM12): > 100 µM (inactive) | GI50 (M14): > 100 µM (inactive) | GI50 (MCF7): > 100 µM (inactive) | GI50 (MOLT-4): > 100 µM (inactive) | GI50 (OVCAR-3): > 100 µM (inactive) | GI50 (OVCAR-4): > 100 µM (inactive) | GI50 (SF-295): > 100 µM (inactive) | GI50 (SK-MEL-28): > 100 µM (inactive) | GI50 (SK-OV-3): > 100 µM (inactive) | GI50 (SNB-75): > 100 µM (inactive) | GI50 (TK-10): > 100 µM (inactive) | GI50 (U-251): > 100 µM (inactive) | GI50 (UACC-257): > 100 µM (inactive)

Cc1c2c(n3c(nc4ccccc43)c1C#N)N(c1ccc(F)cc1)CC2
GI50 (786-0): > 100 µM (inactive) | GI50 (CAKI-1): > 100 µM (inactive) | GI50 (DU-145): > 100 µM (inactive) | GI50 (HCC 2998): > 100 µM (inactive) | GI50 (HOP-62): > 100 µM (inactive) | GI50 (HOP-92): > 100 µM (inactive) | GI50 (MCF7): > 100 µM (inactive) | GI50 (OVCAR-3): > 100 µM (inactive) | GI50 (OVCAR-4): 41.4 µM (inactive) | GI50 (SF-295): > 100 µM (inactive) | GI50 (SK-MEL-28): > 100 µM (inactive) | GI50 (SK-OV-3): 74.5 µM (inactive) | GI50 (SNB-75): > 100 µM (inactive) | GI50 (SW-620): > 100 µM (inactive) | GI50 (TK-10): > 100 µM (inactive) | GI50 (U-251): > 100 µM (inactive) | GI50 (UACC-257): > 100 µM (inactive)

O=C(CCc1cc(O)cc(O)c1)NCCc1cc(OCc2ccccc2)cc(OCc2ccccc2)c1
GI50 (786-0): 18.7 µM (inactive) | GI50 (CAKI-1): 19.2 µM (inactive) | GI50 (DU-145): 15.8 µM (inactive) | GI50 (HCC 2998): 19.6 µM (inactive) | GI50 (HOP-62): 16.4 µM (inactive) | GI50 (HOP-92): 17.1 µM (inactive) | GI50 (KM12): 12.6 µM (inactive) | GI50 (M14): 13.2 µM (inactive) | GI50 (MCF7): 4.92 µM (inactive) | GI50 (MOLT-4): 5.35 µM (inactive) | GI50 (OVCAR-3): 14.7 µM (inactive) | GI50 (SF-295): 10.4 µM (inactive) | GI50 (SK-MEL-28): 17.5 µM (inactive) | GI50 (SK-OV-3): 16.8 µM (inactive) | GI50 (SNB-75): 11 µM (inactive) | GI50 (SW-620): 15.8 µM (inactive) | GI50 (TK-10): 21.4 µM (inactive) | GI50 (U-251): 13 µM (inactive) | GI50 (UACC-257): 23.6 µM (inactive)

O=C(/C=C/c1ccc([N+](=O)[O-])cc1)N1CCN(CCOC(c2ccc(F)cc2)c2ccc(F)cc2)CC1
GI50 (786-0): 67.6 µM (inactive) | GI50 (CAKI-1): 18.2 µM (inactive) | GI50 (DU-145): 18.4 µM (inactive) | GI50 (HCC 2998): 29.2 µM (inactive) | GI50 (HOP-62): > 100 µM (inactive) | GI50 (HOP-92): 6.58 µM (inactive) | GI50 (KM12): 7.36 µM (inactive) | GI50 (M14): 6.35 µM (inactive) | GI50 (MCF7): 5.19 µM (inactive) | GI50 (MOLT-4): 3.6 µM (inactive) | GI50 (OVCAR-3): > 100 µM (inactive) | GI50 (OVCAR-4): 8.75 µM (inactive) | GI50 (SF-295): 69.5 µM (inactive) | GI50 (SK-MEL-28): > 100 µM (inactive) | GI50 (SK-OV-3): > 100 µM (inactive) | GI50 (SNB-75): 4.7 µM (inactive) | GI50 (SW-620): > 100 µM (inactive) | GI50 (TK-10): > 100 µM (inactive) | GI50 (U-251): > 100 µM (inactive) | GI50 (UACC-257): > 100 µM (inactive)

COc1cc(-c2ccccc2)cn2c1nc1ccccc12
GI50 (786-0): 15.7 µM (inactive) | GI50 (CAKI-1): 19.6 µM (inactive) | GI50 (DU-145): 25.6 µM (inactive) | GI50 (HCC 2998): 15.9 µM (inactive) | GI50 (HOP-62): 19.9 µM (inactive) | GI50 (HOP-92): 14.5 µM (inactive) | GI50 (KM12): 17.9 µM (inactive) | GI50 (M14): 20.3 µM (inactive) | GI50 (MCF7): 17.1 µM (inactive) | GI50 (MOLT-4): 15.7 µM (inactive) | GI50 (OVCAR-3): 16.4 µM (inactive) | GI50 (SK-MEL-28): 17 µM (inactive) | GI50 (SK-OV-3): 23.9 µM (inactive) | GI50 (SNB-75): 17.6 µM (inactive) | GI50 (SW-620): 35 µM (inactive) | GI50 (U-251): 20 µM (inactive) | GI50 (UACC-257): 22.7 µM (inactive)

Oc1ccc(Cl)cc1-c1cc(-c2ccccc2)nc(NCN2CCCCC2)n1
GI50 (786-0): > 100 µM (inactive) | GI50 (CAKI-1): 8.81 µM (inactive) | GI50 (DU-145): > 100 µM (inactive) | GI50 (HCC 2998): > 100 µM (inactive) | GI50 (HOP-62): > 100 µM (inactive) | GI50 (HOP-92): > 100 µM (inactive) | GI50 (KM12): 0.78 µM (active) | GI50 (M14): > 100 µM (inactive) | GI50 (MCF7): 2.78 µM (inactive) | GI50 (MOLT-4): > 100 µM (inactive) | GI50 (OVCAR-3): > 100 µM (inactive) | GI50 (OVCAR-4): > 100 µM (inactive) | GI50 (SK-MEL-28): > 100 µM (inactive) | GI50 (SK-OV-3): > 100 µM (inactive) | GI50 (SNB-75): > 100 µM (inactive) | GI50 (SW-620): > 100 µM (inactive) | GI50 (TK-10): > 100 µM (inactive) | GI50 (U-251): > 100 µM (inactive) | GI50 (UACC-257): > 100 µM (inactive)
